Measured values as given in PMC11826995, “Modulation of Protein–Protein Interactions with Molecular Glues in a Synthetic Condensate Platform” (Journal of the American Chemical Society, 2025).
Values belong to the molecule of their own block, whether it stands above or below them. Square brackets hold non-standard residues; d marks the D form. Peptide text beside a SMILES is read from it. * marks the point of attachment. X1 = CCN(CC)c1ccc2c(-c3ccc(NC(=S)*)cc3C(=O)[O-])c3ccc(=[N+](CC)CC)cc-3oc2c1; pS = N[C@@H](COP(=O)(O)O)C(=O)O; AEA = NCCOCC(=O)O

Assays:
[1] = target: T1, 14-3-3γ/ERRγ interaction (Homo sapiens, UniProt P61981); experiment: Split luciferase assay inside condensates; type: biochemical; conditions: 250 pM LgBiT-ERRγ, 250 pM 14-3-3γ-SmBiT, 100 μM compound, 50 μM TCEP, overnight
T1 construct: made in house; host or cells: E. coli BL21(DE3)
T1 sequence (P61981 2-238 limits assumed): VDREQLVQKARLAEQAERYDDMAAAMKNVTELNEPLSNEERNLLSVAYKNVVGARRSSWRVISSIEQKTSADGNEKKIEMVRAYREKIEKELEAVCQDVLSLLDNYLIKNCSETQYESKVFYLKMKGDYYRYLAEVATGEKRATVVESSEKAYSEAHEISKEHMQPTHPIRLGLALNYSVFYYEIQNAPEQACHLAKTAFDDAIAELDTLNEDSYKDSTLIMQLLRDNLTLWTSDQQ

[2] = target: 14-3-3γ/ERRγ (Homo sapiens, UniProt P61981); experiment: pH-dependent fluorescence anisotropy titration of 14-3-3γ to FAM-labeled ERRγ peptide; type: binding; conditions: 100 µM compound
Description: page 10: acetonitrile was used. […] Fluorescence anisotropy (FA) assays […] labeled peptides. […] (1 picture or pasted object on this page, not shown here) page 23: Table S5. […] compound R1. Data obtained from a fit using a four-parameter logistic model to determine KD or KDapp values as 95% confidence interval. The mean s were used for the calculation of the stabilization factor. pH DMSO: KD at 24 h (μM) Compound […] 24 h (μM) Stabilization factor […] 8.0 4.3-8.6 0.054-0.061 103 […] Figure S16. a) Schematic overview of mCherryEA structure and uptake into synthetic condensates. The […] 552 nm, with collection of emission between 562-700 nm in both settings . c) Confocal micrographs of condensates prepared at different pH (bulk pH values shown), with 500 nM of mCherryEA. Excitation was performed at 488 nm or 552 nm, with collection of emission between 562 -700 nm in both settings. d) Plot of the determined local pH values in the condensates relative to the buffer pH (bulk), as determined from the samples in pa nel c and the calibration curve. (1 picture or pasted object on this page, not shown here)

[3] = system: 14-3-3γ/ERRγ interaction; parameters: method as in PMID 36926879; conditions: cited from earlier work
[4] = target: T2, 14-3-3γ/ERRγ interaction (Homo sapiens, UniProt P61981); experiment: Confocal microscopy of FITC-ERRγ recruitment to 14-3-3γ-loaded condensates; conditions: 100 µM compound, 100 nM FITC-ERRγ
T2 sequence (P61981 1-247): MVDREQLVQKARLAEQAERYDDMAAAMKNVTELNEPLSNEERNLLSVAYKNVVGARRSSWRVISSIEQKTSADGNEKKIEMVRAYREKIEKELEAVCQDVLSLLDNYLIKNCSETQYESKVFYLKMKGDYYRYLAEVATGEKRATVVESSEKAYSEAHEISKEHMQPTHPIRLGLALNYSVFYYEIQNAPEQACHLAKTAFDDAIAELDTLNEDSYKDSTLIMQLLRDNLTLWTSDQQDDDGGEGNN

[5] = LC-MS assay for partitioning of small molecules between bulk and condensate phase; type: physicochemical; conditions: 100 µM FC, 2 h equilibration
[6] = target: 14-3-3σ/CIP2A interaction (Homo sapiens, UniProt P31947); experiment: Confocal microscopy of CIP2A client recruitment to 14-3-3σ-loaded synthetic condensates; type: biochemical; conditions: 100 nM CIP2A; for enhancement of CIP2A recruitment at 100 μM molecular glue: 100 μM compound
[7] = target: T3, 14-3-3σ/HSPB6 (Homo sapiens, UniProt P31947); experiment: Competition of molecular glue with HSPB6 for 14-3-3σ binding in condensates (confocal microscopy); type: biochemical; conditions: 14-3-3σ-loaded condensates with HSPB6, overnight
T3 sequence (P31947 1-248): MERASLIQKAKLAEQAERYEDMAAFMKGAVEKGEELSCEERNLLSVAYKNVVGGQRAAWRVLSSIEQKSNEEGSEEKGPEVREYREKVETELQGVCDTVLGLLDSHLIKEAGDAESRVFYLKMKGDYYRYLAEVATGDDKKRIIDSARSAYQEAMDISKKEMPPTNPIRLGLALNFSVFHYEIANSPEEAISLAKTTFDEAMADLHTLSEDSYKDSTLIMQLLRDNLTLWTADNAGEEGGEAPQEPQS

[8] = target: apo 14-3-3σ; parameters: method as in PMID 30996864; conditions: read-out: KD^II (intrinsic affinity for apo 14-3-3σ); cited from earlier work
[9] = target: T4, PPARγ/PRIPRAP (Homo sapiens, UniProt P37231); experiment: Confocal microscopy of PRIPRAP coregulator recruitment to PPARγ-loaded condensates; type: biochemical; conditions: 100 nM PRIPRAP; for PRIPRAP recruitment to PPARγ-loaded condensates relative to DMSO control: 10 μM ligand, 400 nM PPARγ, overnight
T4 construct: made in house; host or cells: bacterial culture with IPTG induction

[10] = target: T5, PPARγ/PRIPRAP (Homo sapiens, UniProt P37231); experiment: as above; type: biochemical; conditions: GW9662 10 μM + tesaglitazar 10 μM
T5 construct: made in house; host or cells: bacterial culture with IPTG induction
T5 sequence (P37231 235-505): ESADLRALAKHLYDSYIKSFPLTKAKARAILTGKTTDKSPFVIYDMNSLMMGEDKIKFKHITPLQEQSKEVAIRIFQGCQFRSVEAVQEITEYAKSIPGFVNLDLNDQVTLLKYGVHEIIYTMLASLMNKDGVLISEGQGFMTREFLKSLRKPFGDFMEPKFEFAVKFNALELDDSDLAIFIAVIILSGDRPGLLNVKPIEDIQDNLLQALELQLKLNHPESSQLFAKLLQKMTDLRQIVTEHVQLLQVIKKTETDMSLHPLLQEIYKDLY

[11] = target: T6, 14-3-3σ (Homo sapiens, UniProt P31947); experiment: Fluorescence anisotropy protein titration of 14-3-3σ to HSPB6 peptide; type: binding
T6 sequence (P31947 1-248): T3 sequence (P31947 1-248)

[12] = system: PPARγ/PRIPRAP; experiment: Fluorescence anisotropy titration of PPARγ to PRIPRAP peptide with PPAR ligands; type: binding; conditions: FA, PPARγ titrated to PRIPRAP peptide
Description: to prevent aspecific hydrophobic interactions.
4-parameter logistic model . The resulting KD or KDapp obtained from the fit is shown as mean with the

[13] = target: T7, PPARγ/MED1 DRIP-2 (Homo sapiens, UniProt P37231); experiment: Tesaglitazar-dependent recruitment of MED1 DRIP-2 to PPARγ-loaded condensates; type: biochemical
T7 construct: made in house; host or cells: bacterial culture with IPTG induction
T7 sequence (P37231 238-503 limits assumed): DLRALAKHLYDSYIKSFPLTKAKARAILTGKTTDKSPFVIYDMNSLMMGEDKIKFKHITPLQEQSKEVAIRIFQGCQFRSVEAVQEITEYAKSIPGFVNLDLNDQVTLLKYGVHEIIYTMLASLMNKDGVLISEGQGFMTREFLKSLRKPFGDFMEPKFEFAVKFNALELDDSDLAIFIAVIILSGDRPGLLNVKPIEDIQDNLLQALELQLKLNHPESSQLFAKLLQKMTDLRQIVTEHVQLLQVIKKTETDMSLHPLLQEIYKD
Description: (§1) The dose dependence of the PPI formation was studied using tesaglitazar (Figures 6g, S24 and S25). Here, we found a significant effect in PPI stabilization in the condensates at 10 μM compound. […].

[14] = target: T8, PPARγ/EP300 (Homo sapiens, UniProt P37231); experiment: Tesaglitazar-dependent recruitment of EP300 to PPARγ-loaded condensates; type: biochemical
T8 construct: made in house; host or cells: bacterial culture with IPTG induction
T8 sequence (P37231 238-503 limits assumed): T7 sequence (P37231 238-503 limits assumed)
Description: as §1

[15] = Partitioning of autofluorescent chiglitazar into condensates by confocal fluorescence; type: physicochemical; conditions: 10 µM, intensity inside condensates versus dilute solution

Stabilization factor ([2]; pH 6.5, 24 h): 3 | Stabilization factor ([2]; pH 7.0, 24 h): 8 | Stabilization factor ([2]; pH 7.5, 24 h): 40 | Stabilization factor ([2]; pH 8.0, 24 h): 103 | Stabilization factor ([2]; pH 8.5, 24 h): 152
Molecule: CN(C)CCSSCCN(C)C(=O)c1cccc(C=O)c1 [Compound R1]
bioluminescence signal in split luciferase assay inside condensates [1]: significantly enhanced bioluminescence signal | SF100μM (stabilization factor at 100 μM compound concentration) [3]: 21 | ERRγ recruitment to condensates over time [4]: reacts over time to yield ERRy recruitment

Molecule: CN(C)CCSSCCN(C)C(=O)c1ccc(C=O)cc1 [Compound R2]
bioluminescence signal in split luciferase assay inside condensates [1]: significantly enhanced bioluminescence signal | SF100μM (stabilization factor at 100 μM compound concentration) [3]: 10

Molecule: CN(C)CCSSCCN(C)C(=O)c1cc(Br)cc(C=O)c1 [Compound R3]
bioluminescence signal in split luciferase assay inside condensates [1]: significantly enhanced bioluminescence signal | SF100μM (stabilization factor at 100 μM compound concentration) [3]: 37

Molecule: CN(C)CCSSCCN(C)C(=O)c1cccc(F)c1 [Compound R4]
SF100μM (stabilization factor at 100 μM compound concentration) [3]: 5

bioluminescence signal in split luciferase assay inside condensates [1]: no change in the bioluminescence
Molecule: CN(C)CCN(C)C(=O)c1ccc(C=O)c(F)c1 [Compound R5]
SF100μM (stabilization factor at 100 μM compound concentration) [3]: 1

partitioning coefficient to the condensate phase [5]: 0.96 ± 0.02
Molecule: C=CC(C)(C)OCC1OC(OC2C3=C(C(C)COC(C)=O)CC(O)C3(C)C=C3C(COC)CCC3C(C)C2O)C(O)C(O)C1O (stereo not shown) [FC, Fusicoccin A]

Molecule: C=CC(C)(C)OC[C@H]1O[C@H](O[C@@H]2C3=C([C@H](C)CN4CCCCC4)C[C@H](O)[C@]3(C)/C=C3/[C@@H](COC)CC[C@H]3[C@@H](C)[C@H]2O)[C@H](O)[C@@H](O)[C@@H]1O [FC-31]
enhancement of CIP2A recruitment at 100 μM molecular glue [6]: significant enhancement of CIP2A recruitment

Molecule: C=CC(C)(C)OC[C@H]1O[C@H](O[C@@H]2C3=C(C(C)C)C[C@H](O)[C@]3(C)/C=C3/[C@@H](COC)CC[C@H]3[C@@H](C)[C@H]2O)[C@H](O)[C@@H](O)[C@@H]1O [FC-J]
enhancement of CIP2A recruitment at 100 μM molecular glue [6]: differentiated performance between the FA assay and the condensates

Molecule: C=CC(C)(C)OC[C@H]1O[C@H](O[C@@H]2C3=C([C@H](C)CNC(C)=O)C[C@H](O)[C@]3(C)/C=C3/[C@@H](COC)CC[C@H]3[C@@H](C)[C@H]2O)[C@H](O)[C@@H](O)[C@@H]1O [FC-NAc]
enhancement of recruitment of CIP2A at 1 μM molecular glue ([6]; 1 μM compound): significant enhancement of recruitment | competition with HSPB6 for 14-3-3 binding in condensates [7]: significant competition with HSPB6 | Kd [8]: 10 µM

Molecule: COCC1CCC2C1=CC1(C)C(=C(C(C)C)C3CCOC31)C(OC1OC3COC(C)(C)OC3C(O)C1O)C(O)C2C (stereo not shown) [FC-THF]
enhancement of CIP2A recruitment at 100 μM molecular glue [6]: significant enhancement of CIP2A recruitment

PRIPRAP recruitment to PPARγ-loaded condensates relative to DMSO control [9]: did not influence PRIPRAP recruitment
Molecule: O=C(Nc1ccccc1)c1cc([N+](=O)[O-])ccc1Cl [GW9662]
effect of antagonist in codosing with tesaglitazar on PRIPRAP recruitment [10]: inhibited the stabilizing effect of tesaglitazar

Molecule: CCN(CC)c1ccc2c(-c3ccc(NC(=S)NCCOCC(=O)N[C@@H](Cc4c[nH]c5ccccc45)C(=O)N[C@@H](CC(C)C)C(=O)N[C@@H](CCCNC(=N)N)C(=O)N[C@@H](CCCNC(=N)N)C(=O)N[C@@H](C)C(=O)N[C@@H](COP(=O)(O)O)C(=O)N[C@@H](C)C(=O)N4CCC[C@H]4C(=O)N[C@@H](CC(C)C)C(=O)N4CCC[C@H]4C(=O)NCC(=O)N[C@@H](CC(C)C)C(=O)N[C@@H](CO)C(=O)N[C@@H](C)C(=O)N4CCC[C@H]4C(N)=O)cc3C(=O)[O-])c3ccc(=[N+](CC)CC)cc-3oc2c1 [HSPB6] ({X1-AEA}-WLRRA[pS]APLPGLSAP-NH2; C-terminus assumed)
fold lower KD for 14-3-3σ than CIP2A in dilute solution [11]: > 10 fold

Molecule: CCO[C@@H](Cc1ccc(OCCc2ccc(OS(C)(=O)=O)cc2)cc1)C(=O)O [Tesaglitazar]
SF100 μM (stabilization factor, fold change in KD^app in the presence of the compound) [12]: 19 | PRIPRAP recruitment to PPARγ-loaded condensates relative to DMSO control [9]: significant recruitment of PRIPRAP | compound concentration with significant effect in PPI stabilization in the condensates ([9]; dose dependence): 10 µM | ligand-mediated stabilization of PPARγ/MED1 DRIP-2 in condensates [13]: ligand-mediated stabilization of the PPI was observed | ligand-mediated stabilization of PPARγ/EP300 in condensates [14]: ligand-mediated stabilization of the PPI was observed

partitioning coefficient [15]: 23 ± 4
Molecule: chiglitazar
